Source: publication PMC11239830, “Synthetic macrolides overcoming MLSBK-resistant pathogens” (Cell Discovery, 2024)
In brackets after ≈: the same amount, converted by molar mass. Read-outs that look alike come from different tables or passages of the source.

Legend:
Assay in all cases: MIC, broth microdilution
S. pneumoniae = type: cell-based, Streptococcus pneumoniae
Experimental: (§1) MICs were determined by the microdilution method according to the Clinical and Laboratory Standards Institute guidelines. […] Finally, the 96-well plates were incubated at 37 °C for 16–20 h to observe and record the results. […] The assay for MICs was replicated at least three times.

S. pyogenes = type: cell-based, Streptococcus pyogenes
Experimental: as §1

S. aureus = type: cell-based, Staphylococcus aureus
Experimental: as §1

H. influenzae = type: cell-based, Haemophilus influenzae
Experimental: as §1

[1] = Streptococcus pneumoniae, ATCC49619, S. pneumoniae ATCC49619, Ery-S, read-out: MIC
[2] = Streptococcus pneumoniae, S. pneumoniae 07P390, c-ermB, read-out: MIC
[3] = Streptococcus pneumoniae, S. pneumoniae PU09, mef, read-out: MIC
[4] = Streptococcus pyogenes, S. pyogenes 12-206, c-ermTR, read-out: MIC
[5] = Staphylococcus aureus, S. aureus 15B196, c-ermB, read-out: MIC
[6] = Staphylococcus aureus, S. aureus PU32, i-ermA, read-out: MIC
[7] = Haemophilus influenzae, ATCC49247, H. influenzae ATCC49247, Azi-S, read-out: MIC
[8] = Streptococcus pyogenes, S. pyogenes 01-968, i-ermTR (Table S5), read-out: MIC
[9] = Streptococcus pyogenes, S. pyogenes 12-206, c-ermB (Table S5), read-out: MIC

MIC (S. pneumoniae; [1]) [µg/mL] | MIC (S. pneumoniae; [2]) [µg/mL] | MIC (S. pneumoniae; [3]) [µg/mL] | MIC (S. pyogenes; [4]) [µg/mL] | MIC (S. aureus; [5]) [µg/mL] | MIC (S. aureus; [6]) [µg/mL] | MIC (H. influenzae; [7]) [µg/mL] | MIC (S. pneumoniae; S. pneumoniae 07P390, c-ermB) [µg/mL] | MIC (S. pneumoniae; S. pneumoniae ATCC49619, Ery-S) [µg/mL] | MIC (S. pneumoniae; S. pneumoniae PU09, mef) [µg/mL] | MIC (S. pyogenes; S. pyogenes 12-206, c-ermTR) [µg/mL] | MIC (S. aureus; S. aureus 15B196, c-ermB) [µg/mL] | MIC (S. aureus; S. aureus PU32, i-ermA) [µg/mL] | MIC (H. influenzae; H. influenzae ATCC49247, Azi-S) [µg/mL] | MIC (S. pyogenes; S. pyogenes 01-968, i-ermTR (Table S5)) [µg/mL] | MIC (S. pyogenes; S. pyogenes 12-206, c-ermB (Table S5)) [µg/mL] | MIC (S. pyogenes; [8]) [µg/mL] | MIC (S. pyogenes; [9]) [µg/mL] | Structure (SMILES)
≤ 0.008 | 0.12 (≈ 0.117 µM) | ≤ 0.008 | 2 (≈ 1.95 µM) | 256 (≈ 250 µM) | 4 (≈ 3.9 µM) | 32 (≈ 31.2 µM) | – | – | – | – | – | – | – | – | – | – | – | CCC1OC(=O)C(C)C(OC(=O)NCCOCCCC#Cc2ccc3c(=O)c(C(=O)O)cn(C4CC4)c3c2)C(C)C(OC2OC(C)CC(N(C)C)C2O)C(C)(OC)CC(C)C(=NOC)C(C)C2OC(=O)OC12C (stereo not shown) [71c]
– | – | – | – | – | – | – | 256 (≈ 261 µM) | 1 (≈ 1.02 µM) | 2 (≈ 2.04 µM) | 512 (≈ 522 µM) | 256 (≈ 261 µM) | 16 (≈ 16.3 µM) | 32 (≈ 32.6 µM) | – | – | – | – | CC[C@H]1OC(=O)[C@H](C)[C@@H](OC(=O)NCCCCCC#Cc2ccc3c(c2)c(=O)c(C(=O)O)cn3C2CC2)[C@H](C)[C@@H](O[C@@H]2O[C@H](C)C[C@H](N(C)C)[C@H]2O)[C@](C)(O)C[C@@H](C)CN(C)[C@H](C)[C@H]2OC(=O)O[C@@]21C [110a]
– | – | – | – | – | – | – | 128 (≈ 141 µM) | 0.06 (≈ 0.0659 µM) | 0.5 (≈ 0.549 µM) | – | – | – | 64 (≈ 70.3 µM) | 1 (≈ 1.1 µM) | 32 (≈ 35.2 µM) | – | – | CC[C@H]1OC(=O)[C@H](C)[C@@H](OC(=O)NCCCCCCC#Cc2ccc3c(=O)[nH]cnc3c2)[C@H](C)[C@@H](O[C@@H]2O[C@H](C)C[C@H](N(C)C)[C@H]2O)[C@](C)(OC)C[C@@H](C)C(=O)[C@H](C)[C@H]2NC(=O)O[C@@]21C [88k]
– | – | – | – | – | – | – | 0.5 (≈ 0.502 µM) | ≤ 0.008 | ≤ 0.008 | 2 (≈ 2.01 µM) | 16 (≈ 16.1 µM) | 4 (≈ 4.02 µM) | 8 (≈ 8.04 µM) | – | – | – | – | CC[C@H]1OC(=O)[C@H](C)[C@@H](OC(=O)NCCCCCCC#Cc2ccc3c(=O)c(C(=O)O)cn(C4CC4)c3c2)[C@H](C)[C@@H](O[C@@H]2O[C@H](C)C[C@H](N(C)C)[C@H]2O)[C@](C)(O)C[C@@H](C)CN(C)[C@H](C)[C@H]2OC(=O)O[C@@]21C [111c]

The next lines start with the compound.

Structure (SMILES) | MIC (S. pneumoniae; [1]) [µg/mL] | MIC (S. pneumoniae; [2]) [µg/mL] | MIC (S. pneumoniae; [3]) [µg/mL] | MIC (S. pyogenes; [4]) [µg/mL] | MIC (S. aureus; [5]) [µg/mL] | MIC (S. aureus; [6]) [µg/mL] | MIC (H. influenzae; [7]) [µg/mL] | MIC (S. pneumoniae; S. pneumoniae 07P390, c-ermB) [µg/mL] | MIC (S. pneumoniae; S. pneumoniae ATCC49619, Ery-S) [µg/mL] | MIC (S. pneumoniae; S. pneumoniae PU09, mef) [µg/mL] | MIC (S. pyogenes; S. pyogenes 12-206, c-ermTR) [µg/mL] | MIC (S. aureus; S. aureus 15B196, c-ermB) [µg/mL] | MIC (S. aureus; S. aureus PU32, i-ermA) [µg/mL] | MIC (H. influenzae; H. influenzae ATCC49247, Azi-S) [µg/mL] | MIC (S. pyogenes; S. pyogenes 01-968, i-ermTR (Table S5)) [µg/mL] | MIC (S. pyogenes; S. pyogenes 12-206, c-ermB (Table S5)) [µg/mL] | MIC (S. pyogenes; [8]) [µg/mL] | MIC (S. pyogenes; [9]) [µg/mL]
CC[C@H]1OC(=O)[C@H](C)[C@@H](OC(=O)NCCCCCCCCCCc2ccc3c(c2)c(=O)c(C(N)=O)cn3C2CC2)[C@H](C)[C@@H](O[C@@H]2O[C@H](C)C[C@H](N(C)C)[C@H]2O)[C@](C)(OC)C[C@@H](C)C(=NOC)[C@H](C)[C@H]2OC(=O)O[C@@]21C [64b] | – | – | – | – | – | – | – | 16 (≈ 15.2 µM) | 4 (≈ 3.79 µM) | 8 (≈ 7.59 µM) | 16 (≈ 15.2 µM) | > 256 | 64 (≈ 60.7 µM) | > 256 | – | – | – | –
CC[C@H]1OC(=O)[C@H](C)[C@@H](OC(=O)NCCCCCCCc2ccc3c(c2)c(=O)c(C(N)=O)cn3C2CC2)[C@H](C)[C@@H](O[C@@H]2O[C@H](C)C[C@H](N(C)C)[C@H]2O)[C@](C)(OC)C[C@@H](C)C(=NOC)[C@H](C)[C@H]2OC(=O)O[C@@]21C [61b] | – | – | – | – | – | – | – | 16 (≈ 15.8 µM) | 1 (≈ 0.988 µM) | 1 (≈ 0.988 µM) | 16 (≈ 15.8 µM) | > 256 | 64 (≈ 63.2 µM) | > 256 | – | – | – | –
CC[C@H]1OC(=O)[C@H](C)[C@@H](OC(=O)NCCCOCCC#Cc2ccc3cc(C(=O)O)cnc3c2)[C@H](C)[C@@H](O[C@@H]2O[C@H](C)C[C@H](N(C)C)[C@H]2O)[C@](C)(OC)C[C@@H](C)C(=O)[C@H](C)[C@H]2NC(=O)O[C@@]21C [95j] | 1 (≈ 1.06 µM) | > 256 | 8 (≈ 8.52 µM) | 128 (≈ 136 µM) | > 256 | 64 (≈ 68.1 µM) | 128 (≈ 136 µM) | – | – | – | – | – | – | – | – | – | – | –
CC[C@H]1OC(=O)[C@H](C)[C@@H](OC(=O)NCCCCCCC#Cc2ccc3c(=O)c4c(O)cc(O)cc4oc3c2)[C@H](C)[C@@H](O[C@@H]2O[C@H](C)C[C@H](N(C)C)[C@H]2O)[C@](C)(OC)C[C@@H](C)C(=O)[C@H](C)[C@H]2NC(=O)O[C@@]21C [88m] | 4 (≈ 4.03 µM) | 16 (≈ 16.1 µM) | 1 (≈ 1.01 µM) | 32 (≈ 32.3 µM) | – | – | 16 (≈ 16.1 µM) | – | – | – | – | – | – | – | – | – | 16 (≈ 16.1 µM) | 32 (≈ 32.3 µM)
CC[C@H]1OC(=O)[C@H](C)[C@@H](OC(=O)NCCCCCCC#Cc2ccc3c(=O)n(CC(=O)O)cnc3c2)[C@H](C)[C@@H](O[C@@H]2O[C@H](C)C[C@H](N(C)C)[C@H]2O)[C@](C)(OC)C[C@@H](C)C(=O)[C@H](C)[C@H]2NC(=O)O[C@@]21C [88l] | 0.25 (≈ 0.258 µM) | 256 (≈ 264 µM) | 0.25 (≈ 0.258 µM) | 256 (≈ 264 µM) | – | – | 256 (≈ 264 µM) | – | – | – | – | – | – | – | – | – | 8 (≈ 8.26 µM) | 256 (≈ 264 µM)
CC[C@H]1OC(=O)[C@H](C)[C@@H](OC(=O)NCCCCCCC#Cc2ccc3c(=O)c(C(=O)O)cn(C4CC4)c3c2)[C@H](C)[C@@H](O[C@@H]2O[C@H](C)C[C@H](N(C)C)[C@H]2O)[C@](C)(OC)C[C@@H](C)C(=O)[C@H](C)[C@H]2NC(=O)O[C@@]21C [88c] | ≤ 0.008 | – | ≤ 0.008 | 0.5 (≈ 0.503 µM) | 8 (≈ 8.05 µM) | 2 (≈ 2.01 µM) | – | – | – | – | 1 (≈ 1.01 µM) | 4 (≈ 4.03 µM) | 1 (≈ 1.01 µM) | – | – | – | – | –
